Assay results published in patent US5401853A, “Thiadiazole derivatives for the treatment of depressive states” (Laboratorio Farmaceutico C.T. S.r.l., priority 1992, dated 1995).
Where two headings read alike, the source gives them in different places.

How the values were obtained:
[1] = Acute toxicity (LD50) in mice; conditions: mouse, in vivo, read-out: LD50 (DL50)
mice = test: Dispair test (Porsolt) in mice; assay type: in vivo, Swiss strain male mice (CD-1 Charles River); conditions: for immobility duration: 1 hour before test; for minimal effective dose: Dispair test, i.p., read-out: active dosage
Protocol: This behaviouristic test conceived by Porsolt (1977 --Nature, 266 730-732 is generally utilized to evaluate the antidepressant activity.
Swiss strain male mice of average weight of 30 g (CD -1 Charles River) casually assigned to the different treatment groups are used.
The method consists in placing the animal in a plexiglas cylinder 25 cm high and with a diameter of 9 cm filled with water at 24° C. up to a level of 6 cm.
The test lasts 6 minutes and the time in which the animal lets itself float without reacting is measured starting from the 2nd minute (immobility duration).
The animals ape treated by intraperitoneal route (injection volume 10 ml/kg) 1 hour before the test.
The evaluation is carried out in blind. The statistical analysis of the results is carried out where it is possible by means of the T-Student test, otherwise the non parametric test of Mann Whitney is used.

Solubility in solvents = assay type: physicochemical
rats = test: Social Interaction test in rats (anxiolythic activity); assay type: in vivo, Sprague-Dawley male rats; conditions: for Social Interaction increase (%): 1 hour before test, vs controls
Excerpt: The behaviouristic Social Interaction test found by FILE was used. (Animal models of psychiatric disorders, vol. 1 Karger, Basel, pp 151-166).
It consists in an experimental procedure permitting to evaluate the influence of the pharmacological treatment on the spontaneous behaviour of the rat, by means of the social component which in this animal is particularly accentuated.
Sprague-Dawley male rats weighing about 250 g are used. After a normal stabling period (2 weeks), the animal are isolated in smaller cages (267×207×140 mm surface 410 cm^2) for a period of about 5 days.
Then the rats are gathered into couples, avoiding that weight difference between the two animals overcomes 10 g and that the couple components had not previously stabled together.
The couple thus gathered are assigned to the respective treatment group.
Diazepam was utilized as the positive control drug: 1,25 mg/kg are intraperitoneally administered 30' before carrying out the test.
The compounds to be tested are administered 1 hour before carrying out the test.
The box utilized [55×55×30 cm (height)] for the animal observation is white, completely washable and provided with a floor split up into 25 squares.
A 100 Watt lamp is placed upon the box at 50 cm from the floor. The test is realized in a remote room whose only light source is represented by the lamp lighting the box.
The evaluation is carried out in blind. The animals are observed indirectly, by means of a mirror suitably placed.
Evaluated parameters: time passed in Social Interaction (sniffing pursuit, grooming, boxing etc.).
The box is systematically cleaned up after every test.
The results are expressed as a function of a percentage increase of Social Interaction of the treated animals in comparison with the controls.

[2] = Mus musculus, ip, 1 h, 0.25 mg/kg i.p., vs control (dosage 0), read-out: immobility duration < % (decrease)
[3] = Mus musculus, ip, 1 h, 0.5 mg/kg i.p., vs control (dosage 0), read-out: immobility duration < % (decrease)
[4] = Mus musculus, ip, 1 h, 1 mg/kg i.p., vs control (dosage 0), read-out: immobility duration < % (decrease)
[5] = Mus musculus, ip, 1 h, 10 mg/kg i.p., vs control (dosage 0), read-out: immobility duration < % (decrease)
[6] = Mus musculus, ip, 1 h, 0.1 mg/kg i.p., vs control (dosage 0), read-out: immobility duration < % (decrease)

With CC(=O)Nc1nnc(SCc2ccccc2)s1 [B17, 2-acetylamino-5-benzylmercapto-1,3,4-thiadiazole] the LD50 ([1]; ip) was > 1000 mg/kg, the LD50 ([1]; po, per os) was > 1000 mg/kg and the immobility duration (mice; 0.03 mg/kg i.p.) was 198 ± 16. For the same compound, the immobility duration (mice; 0.06 mg/kg i.p.) was 159 ± 38, the immobility duration (mice; 0.125 mg/kg i.p.) was 167 ± 22 and the immobility duration (mice; 0.25 mg/kg i.p.) was 183 ± 20. It also gave an immobility duration (mice; 0.5 mg/kg i.p.) of 182 ± 25, an immobility duration (mice; 1 mg/kg i.p.) of 187 ± 36 and an inhibition in vivo at 0.06 mg/kg (mice; Mus musculus, ip, 1 h, 0.06 mg/kg i.p., vs control (dosage 0), read-out: immobility duration < % (decrease)) of 22%. The inhibition in vivo at 0.125 mg/kg (mice; Mus musculus, ip, 1 h, 0.125 mg/kg i.p., vs control (dosage 0), read-out: immobility duration < % (decrease)) was 17%, the inhibition in vivo at 0.25 mg/kg (mice; [2]) was 10% and the inhibition in vivo at 0.5 mg/kg (mice; [3]) was 10%. For the same compound, the minimal effective dose (mice; Mus musculus, ip, 1 h) was ~0.5 mg/kg.
Work on COc1ccc(CSc2nnc(NC(C)=O)s2)cc1 [B53] yielded an immobility duration (mice; 0.1 mg/kg i.p.) of 182 ± 16, an immobility duration (mice; 0.5 mg/kg i.p.) of 165 ± 25 and an immobility duration (mice; 1 mg/kg i.p.) of 151 ± 29. For the same compound, the immobility duration (mice; 2 mg/kg i.p.) was 195 ± 31, the inhibition in vivo at 0.5 mg/kg (mice; [3]) was 10% and the inhibition in vivo at 1 mg/kg (mice; [4]) was 15%.
With CC(=O)N(C)c1nnc(SC(C)C)s1 [B39, 2-(N-methyl-N-acethyl)-amino-5-isopropylmercapto-1,3,4-thiadiazole] the immobility duration (mice; 0.125 mg/kg i.p.) was 180 ± 19, the immobility duration (mice; 0.25 mg/kg i.p.) was 155 ± 36 and the immobility duration (mice; 0.5 mg/kg i.p.) was 169 ± 30. The immobility duration (mice; 1 mg/kg i.p.) was 161 ± 14, the immobility duration (mice; 5 mg/kg i.p.) was 176 ± 28 and the immobility duration (mice; 10 mg/kg i.p.) was 204 ± 18. The inhibition in vivo at 0.25 mg/kg (mice; [2]) was 18%, the inhibition in vivo at 0.5 mg/kg (mice; [3]) was 10% and the inhibition in vivo at 1 mg/kg (mice; [4]) was 14%.
With Nc1nnc(SCc2ccccc2)s1 [B16, 2-amino-5-benzylmercapto-1,3,4-thiadiazole] the “solubility in alcohols, chloroform, ethyl acetate, acetone” value (Solubility in solvents) was “soluble”, the “solubility in ether and water” value (Solubility in solvents) was “insoluble” and the LD50 ([1]; ip) was > 600 mg/kg. For the same compound, the LD50 ([1]; po, per os) was > 600 mg/kg, the “Social Interaction increase (%)” value (rats; 0.5 mg/kg) was 40% and the “Social Interaction increase (%)” value (rats; 1 mg/kg) was 67%. For the same compound, the “Social Interaction increase (%)” value (rats; 2.5 mg/kg) was 94%, the “Social Interaction increase (%)” value (rats; 5 mg/kg) was 51% and the “shape of dose-response curve, Social Interaction” value (rats; 0.5-5 mg/kg) was “Gaussian shape”. It also gave an immobility duration (mice; 1 mg/kg i.p.) of 197 ± 22, an immobility duration (mice; 5 mg/kg i.p.) of 171 ± 23 and an immobility duration (mice; 10 mg/kg i.p.) of 132 ± 45. For the same compound, the immobility duration (mice; 15 mg/kg i.p.) was 186 ± 14, the immobility duration (mice; 20 mg/kg i.p.) was 199 ± 16 and the inhibition in vivo at 5 mg/kg (mice; Mus musculus, ip, 1 h, 5 mg/kg i.p., vs control (dosage 0), read-out: immobility duration < % (decrease)) was 16%. It also gave an inhibition in vivo at 10 mg/kg (mice; [5]) of 35%, an inhibition in vivo at 15 mg/kg (mice; Mus musculus, ip, 1 h, 15 mg/kg i.p., vs control (dosage 0), read-out: immobility duration < % (decrease)) of 8% and a minimal effective dose (mice; Mus musculus, ip, 1 h) of 5 to 10 mg/kg.
CC(=O)Nc1nnc(SC(C)C)s1 [B36, 2-N-acethyl-5-isopropylmercapto-1,3,4thiadiazole] gave an immobility duration (mice; 0.5 mg/kg i.p.) of 178 ± 33, an immobility duration (mice; 1 mg/kg i.p.) of 159 ± 23 and an immobility duration (mice; 2.5 mg/kg i.p.) of 188 ± 16. The immobility duration (mice; 5 mg/kg i.p.) was 196 ± 22, the immobility duration (mice; 12.5 mg/kg i.p.) was 199 ± 15 and the inhibition in vivo at 1 mg/kg (mice; [4]) was 19%. The minimal effective dose (mice; Mus musculus, ip, 1 h) was 1 mg/kg.
For COc1cccc(CSc2nnc(N)s2)c1 [B63], the “Social Interaction increase (%)” value (rats; 0.25 mg/kg) was 14%, the “Social Interaction increase (%)” value (rats; 0.5 mg/kg) was 40% and the “Social Interaction increase (%)” value (rats; 1 mg/kg) was 70%. The “Social Interaction increase (%)” value (rats; 2.5 mg/kg) was 73%, the immobility duration (mice; 0.05 mg/kg i.p.) was 187 ± 34 and the immobility duration (mice; 0.1 mg/kg i.p.) was 171 ± 26. The immobility duration (mice; 0.25 mg/kg i.p.) was 159 ± 22, the immobility duration (mice; 0.5 mg/kg i.p.) was 166 ± 25 and the immobility duration (mice; 1 mg/kg i.p.) was 174 ± 30. It also gave an immobility duration (mice; 10 mg/kg i.p.) of 187 ± 26, an inhibition in vivo at 0.1 mg/kg (mice; [6]) of 15% and an inhibition in vivo at 0.25 mg/kg (mice; [2]) of 21%. For the same compound, the inhibition in vivo at 0.5 mg/kg (mice; [3]) was 18% and the inhibition in vivo at 1 mg/kg (mice; [4]) was 14%.
In the case of CSc1nnc(N)s1 [B21], the LD50 ([1]; ip) is reported as > 1000 mg/kg, the immobility duration (mice; 20 mg/kg i.p.) is reported as 187 ± 13 and the immobility duration (mice; 25 mg/kg i.p.) is reported as 175 ± 31. For the same compound, the immobility duration (mice; 50 mg/kg i.p.) was 161 ± 26, the immobility duration (mice; 60 mg/kg i.p.) was 176 ± 21 and the immobility duration (mice; 75 mg/kg i.p.) was 170 ± 39. For the same compound, the immobility duration (mice; 100 mg/kg i.p.) was 187 ± 25, the inhibition in vivo at 20 mg/kg (mice; Mus musculus, ip, 1 h, 20 mg/kg i.p., vs control (dosage 0), read-out: immobility duration < % (decrease)) was 8% and the inhibition in vivo at 25 mg/kg (mice; Mus musculus, ip, 1 h, 25 mg/kg i.p., vs control (dosage 0), read-out: immobility duration < % (decrease)) was 16%. The inhibition in vivo at 50 mg/kg (mice; Mus musculus, ip, 1 h, 50 mg/kg i.p., vs control (dosage 0), read-out: immobility duration < % (decrease)) was 23%, the inhibition in vivo at 60 mg/kg (mice; Mus musculus, ip, 1 h, 60 mg/kg i.p., vs control (dosage 0), read-out: immobility duration < % (decrease)) was 16% and the inhibition in vivo at 75 mg/kg (mice; Mus musculus, ip, 1 h, 75 mg/kg i.p., vs control (dosage 0), read-out: immobility duration < % (decrease)) was 19%. It also gave an inhibition in vivo at 100 mg/kg (mice; Mus musculus, ip, 1 h, 100 mg/kg i.p., vs control (dosage 0), read-out: immobility duration < % (decrease)) of 11%.
With COc1ccc(CSc2nnc(N)s2)cc1 [B51] the immobility duration (mice; 0.01 mg/kg i.p.) was 200 ± 19, the immobility duration (mice; 0.03 mg/kg i.p.) was 164 ± 29 and the immobility duration (mice; 0.1 mg/kg i.p.) was 166 ± 13. It also gave an immobility duration (mice; 0.3 mg/kg i.p.) of 158 ± 24, an immobility duration (mice; 1.25 mg/kg i.p.) of 174 ± 40 and an immobility duration (mice; 5 mg/kg i.p.) of 189 ± 15. The inhibition in vivo at 0.03 mg/kg (mice; Mus musculus, ip, 1 h, 0.03 mg/kg i.p., vs control (dosage 0), read-out: immobility duration < % (decrease)) was 13%, the inhibition in vivo at 0.1 mg/kg (mice; [6]) was 12% and the inhibition in vivo at 0.3 mg/kg (mice; Mus musculus, ip, 1 h, 0.3 mg/kg i.p., vs control (dosage 0), read-out: immobility duration < % (decrease)) was 16%. It also gave a minimal effective dose (mice; Mus musculus, ip, 1 h) of ~0.5 mg/kg.
Work on CC(C)Sc1nnc(N)s1 [B35] yielded an immobility duration (mice; 10 mg/kg i.p.) of 165 ± 42, an immobility duration (mice; 15 mg/kg i.p.) of 194 ± 14 and an immobility duration (mice; 20 mg/kg i.p.) of 185 ± 11. The inhibition in vivo at 10 mg/kg (mice; [5]) was 17% and the minimal effective dose (mice; Mus musculus, ip, 1 h) was 10 mg/kg.
CN(C)CCCN1c2ccccc2CCc2ccccc21 [imipramine, reference compound] gave a minimal effective dose (mice; Mus musculus, ip, 1 h) of 20 mg/kg.
CC(=O)Nc1nnc(SCc2ccc([N+](=O)[O-])cc2)s1 [B45] gave an immobility duration (mice; 0.1 mg/kg i.p.) of 182 ± 22, an immobility duration (mice; 0.25 mg/kg i.p.) of 167 ± 26 and an immobility duration (mice; 0.5 mg/kg i.p.) of 166 ± 18. The immobility duration (mice; 1 mg/kg i.p.) was 183 ± 17, the inhibition in vivo at 0.25 mg/kg (mice; [2]) was 16% and the inhibition in vivo at 0.5 mg/kg (mice; [3]) was 16%.
